Data reported in patent US20100234815A1, “STABLE MELT PROCESSABLE CHLORHEXIDINE COMPOSITIONS” (Teleflex Medical Incorporated, priority 2009, published 2010).

Columns and labels:
Format in all cases: physicochemical
[1] = HPLC of chlorhexidine diacetate extracted from Tecothane-2095A compounded resin (thermal degradation on melt processing); details: for 4.1 peak (CHA) / RRT 0.6 (degradant) / RRT 1.3 (degradant) / RRT 1.6 (degradant): Tecothane-2095A compounded resin
Excerpt: Tecothane®-2095A was coated with 5% w/w polytetramethyleneoxide (PTMO) of molecular weight (MW)=1000 by mixing 45.1 gram (g) of PTMO with 900g Tecothane®-2095A. The PTMO coated resin and chlorhexidine diacetate were separately fed into an 18 millimeter (mm) Leistritz twin screw intermeshing extruder (Somerville, N.J.) from K-Tron feeders (Pitman, N.J.) at rates of 2.5 kilograms per hour (kg/hr) and 0.25 kg/hr, respectively. The extruder was set at 112 revolutions per minute (rpm) for screw speed and the barrel zone temperatures were set from 145° C. thru 178° C. The extrudate was pelletized into small pellets.
(§1) Chlorhexidine diacetate content of the prepared samples was extracted with 1:1 tetrahydrofuran (THF): H2O and analyzed on the Agilent Eclipse XDB-CN 5u 4.6×150 mm column with guard column. Briefly, 2 centimeter (cm) sample segments were extracted with 5 mL of THF and 5 mL of H2O, vortexed, and centrifuged. HPLC analysis was run on an Agilent Eclipse XDB-CN 5u 4.6×150 mm column and 4.6×12.5 mm Eclipse XDB-CN guard column, with a mixture of deionized water, acetonitrile, and trifluoroacetic acid as the mobile phase. Concentrations of the analytes were determined via calibration curves.
In addition to the experimental conditions described with reference to FIG. 2, chlorhexidine diacetate compounded in Tecothane 2095A was subjected to melt temperatures ranging from about 139° C. to about 172° C. and the concentration of the analytes was determined via a calibration curve as described in the following Table 1.

[2] = HPLC of chlorhexidine diacetate extracted from low melt temperature Tecoflex-93A compounded resin; details: for 4.289 peak (CHA) / RRT 0.6 (degradant) / RRT 1.3 (degradant) / RRT 1.6 (degradant): low melt temperature (LMT) Tecoflex-93A
Protocol: Low melting temperature Tecoflex-93A and chlorhexidine diacetate were separately fed into al 8 mm Leistritz twin screw intermeshing extruder from K-tron feeders at rates of 1 kg/hr and 0.1 kg/hr, respectively. The barrel zone temperatures were set at 121° C. for all zones. The extrudate was pelletized into small pellets.
as §1
In addition to the experimental conditions described with reference to FIG. 3, chlorhexidine diacetate compounded in low melt temperature Tecoflex-93A was subjected to melt temperatures ranging from about 131° C. to about 137° C. The concentration of the analytes was determined via a calibration curve as described in the following Table 2.

[3] = HPLC of CHA extracted from co-extruded 7Fr single lumen tubing
Protocol: […] Co-extruded tubing was also analyzed for chlorhexidine degradants.
as §1

[4] = HPLC of CHA extracted from Versaflex CL30 compounded resin; details: for 4.1 peak (CHA) / RRT 0.6 (degradant) / RRT 1.3 (degradant) / RRT 1.6 (degradant): Versaflex CL30 compounded resin
Protocol: Versaflex® CL30 and chlorhexidine diacetate were separately fed into an 18 mm Leistritz twin screw intermeshing extruder from K-tron feeders at rates of 2.5 kg/hr and 0.25 kg/hr, respectively. The barrel zone temperatures were set from 131° C. thru 148° C. The extrudate was pelletized into small pellets.
as §1

[5] = HPLC of CHA extracted from PVC compounded resin
Protocol: Separate samples of polyvinyl chloride (shore 65A and shore 85A respectively) and chlorhexidine diacetate were separately fed into an 18 mm Leistritz twin screw intermeshing extruder from K-tron feeders at rates of 2.0 kg/hr and 0.2 kg/hr, respectively. The barrel zone temperatures were set from 140° C. thru 155° C. The extrudate was pelletized into small pellets.
as §1
In addition to the experimental conditions described with reference to FIG. 7, chlorhexidine diacetate compounded in polyvinyl chloride (Shore A hardness of […] & 85) was subjected to melt temperatures ranging from about 145° C. to about 176° C. The concentration of the analytes was determined via a calibration curve as described in the following Table 6.

[6] = HPLC of chlorhexidine dodecanoate extracted from LMT Tecoflex-93A compounded resin; details: for 4.289 peak (CHDD) / RRT 0.6 (degradant) / RRT 1.3 (degradant) / RRT 1.6 (degradant): LMT Tecoflex-93A compounded resin
[7] = co-extruded 7Fr single lumen, melt temp 135 °C (condition 1)
[8] = PVC 60A compounded resin, melt temp 145 °C (condition 1)
[9] = PVC 60A compounded resin, melt temp 154 °C (condition 2)
[10] = PVC 60A compounded resin, melt temp 159 °C (condition 3)
[11] = PVC 60A compounded resin, melt temp 165 °C (condition 4)
[12] = PVC 60A compounded resin, melt temp 171 °C (condition 5)
[13] = PVC 85A compounded resin, melt temp 155 °C (condition 1)
[14] = PVC 85A compounded resin, melt temp 159 °C (condition 2)
[15] = PVC 85A compounded resin, melt temp 163 °C (condition 3)
[16] = PVC 85A compounded resin, melt temp 167 °C (condition 4)
[17] = PVC 85A compounded resin, melt temp 170 °C (condition 5)
[18] = PVC 85A compounded resin, melt temp 176 °C (condition 6)

Which results are given for `CC(=O)O.CC(=O)O.NC(=N\CCCCCC/N=C(N)/N=C(\N)Nc1ccc(Cl)cc1)/N=C(\N)Nc1ccc(Cl)cc1` [CHA, chlorhexidine diacetate]?
4.1 peak (CHA) ([1]; melt temp 139 °C (condition 1)): 89%; RRT 0.6 (degradant) ([1]; melt temp 139 °C (condition 1)): 3%; RRT 1.3 (degradant) ([1]; melt temp 139 °C (condition 1)): 8%; RRT 1.6 (degradant) ([1]; melt temp 139 °C (condition 1)): 1%; 4.1 peak (CHA) ([1]; melt temp 142 °C (condition 2)): 88%; RRT 0.6 (degradant) ([1]; melt temp 142 °C (condition 2)): 3%; RRT 1.3 (degradant) ([1]; melt temp 142 °C (condition 2)): 8%; RRT 1.6 (degradant) ([1]; melt temp 142 °C (condition 2)): 1%; 4.1 peak (CHA) ([1]; melt temp 144 °C (condition 3)): 84%; RRT 0.6 (degradant) ([1]; melt temp 144 °C (condition 3)): 4%; RRT 1.3 (degradant) ([1]; melt temp 144 °C (condition 3)): 11%; RRT 1.6 (degradant) ([1]; melt temp 144 °C (condition 3)): 1%; 4.1 peak (CHA) ([1]; melt temp 172 °C (condition 4)): 77%; RRT 0.6 (degradant) ([1]; melt temp 172 °C (condition 4)): 7%; RRT 1.3 (degradant) ([1]; melt temp 172 °C (condition 4)): 13%; RRT 1.6 (degradant) ([1]; melt temp 172 °C (condition 4)): 3%; thermal degradation on melt processing (HPLC, FIG. 2) ([1]; compounded in Tecothane 2095A, melt temperature 164 °C, 280 nm): degrades into several products; thermal degradation on melt processing (HPLC, FIG. 3) ([2]; compounded in low melt temperature Tecoflex-93A, melt temperature 136 °C, 280 nm): did not degrade; 4.289 peak (CHA) ([2]; melt temp 131 °C (condition 1)): 100; RRT 0.6 (degradant) ([2]; melt temp 131 °C (condition 1)): Not detected; RRT 1.3 (degradant) ([2]; melt temp 131 °C (condition 1)): Not detected; RRT 1.6 (degradant) ([2]; melt temp 131 °C (condition 1)): Not detected; 4.289 peak (CHA) ([2]; melt temp 137 °C (condition 2)): 100; RRT 0.6 (degradant) ([2]; melt temp 137 °C (condition 2)): Non-detected; RRT 1.3 (degradant) ([2]; melt temp 137 °C (condition 2)): Not detected; RRT 1.6 (degradant) ([2]; melt temp 137 °C (condition 2)): Not detected; stable processing temperature limit ([2]; with polyurethanes): about 137 °C; 4.289 peak (CHA) [3, 7]: 100; RRT 0.6 (degradant) [3, 7]: Not detected; RRT 1.3 (degradant) [3, 7]: Not detected; RRT 1.6 (degradant) [3, 7]: Not detected; stable processing temperature limit ([3]; with polyurethanes, from Table 4 (co-extruded 7Fr single lumen)): at least 135 °C; 4.1 peak (CHA) ([4]; melt temp 101 °C (condition 1)): 100; RRT 0.6 (degradant) ([4]; melt temp 101 °C (condition 1)): Not detected; RRT 1.3 (degradant) ([4]; melt temp 101 °C (condition 1)): Not detected; RRT 1.6 (degradant) ([4]; melt temp 101 °C (condition 1)): Not detected; 4.1 peak (CHA) ([4]; melt temp 121 °C (condition 2)): 100; RRT 0.6 (degradant) ([4]; melt temp 121 °C (condition 2)): Not detected; RRT 1.3 (degradant) ([4]; melt temp 121 °C (condition 2)): Not detected; RRT 1.6 (degradant) ([4]; melt temp 121 °C (condition 2)): Not detected; 4.1 peak (CHA) ([4]; melt temp 129 °C (condition 3)): 100; RRT 0.6 (degradant) ([4]; melt temp 129 °C (condition 3)): Not detected; RRT 1.3 (degradant) ([4]; melt temp 129 °C (condition 3)): Not detected; RRT 1.6 (degradant) ([4]; melt temp 129 °C (condition 3)): Not detected; 4.1 peak (CHA) ([4]; melt temp 139 °C (condition 4)): 100; RRT 0.6 (degradant) ([4]; melt temp 139 °C (condition 4)): Not detected; RRT 1.3 (degradant) ([4]; melt temp 139 °C (condition 4)): Not detected; RRT 1.6 (degradant) ([4]; melt temp 139 °C (condition 4)): Not detected; 4.1 peak (CHA) ([4]; melt temp 144 °C (condition 5)): 100; RRT 0.6 (degradant) ([4]; melt temp 144 °C (condition 5)): Not detected; RRT 1.3 (degradant) ([4]; melt temp 144 °C (condition 5)): Not detected; RRT 1.6 (degradant) ([4]; melt temp 144 °C (condition 5)): Not detected; 4.1 peak (CHA) ([4]; melt temp 149 °C (condition 6)): 100; RRT 0.6 (degradant) ([4]; melt temp 149 °C (condition 6)): Not detected; RRT 1.3 (degradant) ([4]; melt temp 149 °C (condition 6)): Not detected; RRT 1.6 (degradant) ([4]; melt temp 149 °C (condition 6)): Not detected; 4.1 peak (CHA) ([4]; melt temp 153 °C (condition 7)): 100; RRT 0.6 (degradant) ([4]; melt temp 153 °C (condition 7)): Not detected; RRT 1.3 (degradant) ([4]; melt temp 153 °C (condition 7)): Not detected; RRT 1.6 (degradant) ([4]; melt temp 153 °C (condition 7)): Not detected; 4.1 peak (CHA) ([4]; melt temp 161 °C (condition 8)): 100; RRT 0.6 (degradant) ([4]; melt temp 161 °C (condition 8)): Not detected; RRT 1.3 (degradant) ([4]; melt temp 161 °C (condition 8)): Not detected; RRT 1.6 (degradant) ([4]; melt temp 161 °C (condition 8)): Not detected; % Peak area (degradant) [5, 8]: Not detected; % Peak area CHA [5, 8]: 100%; % Peak area (degradant) [5, 9]: Not detected; % Peak area CHA [5, 9]: 100%; % Peak area (degradant) [5, 10]: Not detected; % Peak area CHA [5, 10]: 100%; % Peak area (degradant) [5, 11]: Not detected; % Peak area CHA [5, 11]: 100%; % Peak area (degradant) [5, 12]: 0.4%; % Peak area CHA [5, 12]: 99.6%; % Peak area (degradant) [5, 13]: Not detected; % Peak area CHA [5, 13]: 100%; % Peak area (degradant) [5, 14]: Not detected; % Peak area CHA [5, 14]: 100%; % Peak area (degradant) [5, 15]: Not detected; % Peak area CHA [5, 15]: 100%; % Peak area (degradant) [5, 16]: 0.4%; % Peak area CHA [5, 16]: 99.6%; % Peak area (degradant) [5, 17]: 0.3%; % Peak area CHA [5, 17]: 99.7%; % Peak area (degradant) [5, 18]: 0.7%; % Peak area CHA [5, 18]: 99.3%; thermal degradation on melt processing (HPLC, FIG. 5) ([5]; compounded in polyvinyl chloride (Shore A hardness of 65), melt temperature 145 °C, 280 nm): did not degrade; thermal degradation on melt processing (HPLC, FIG. 6) ([5]; compounded in polyvinyl chloride (Shore A hardness of 85), melt temperature 155 °C, 280 nm): did not degrade; amount of degradant generated (HPLC, FIG. 7) ([5]; compounded in polyvinyl chloride (Shore A hardness of 85), processed at 176 °C, 280 nm): less than 1%

For `CCCCCCCCCCCC(=O)O.NC(=NCCCCCCN=C(N)N=C(N)Nc1ccc(Cl)cc1)N=C(N)Nc1ccc(Cl)cc1` [CHDD, chlorhexidine dodecanoate], which “4.289 peak (CHDD)” value ([6]; melt temp 132 °C (condition 1)) is on record?
Its value is 100.

What about the “RRT 0.6 (degradant)” value ([6]; melt temp 132 °C (condition 1)) of the same compound?
Its value is “Non-detected”.

And the “RRT 1.3 (degradant)” value ([6]; melt temp 132 °C (condition 1))?
Its value is “Not detected”.

What about the “RRT 1.6 (degradant)” value ([6]; melt temp 132 °C (condition 1)) of the same compound?
The value was “Not detected”.

What about the “4.289 peak (CHDD)” value ([6]; melt temp 136 °C (condition 2)) of the same compound?
Its value is 100.

What about the “RRT 0.6 (degradant)” value ([6]; melt temp 136 °C (condition 2)) of the same compound?
Its value is “Non-detected”.

And the “RRT 1.3 (degradant)” value ([6]; melt temp 136 °C (condition 2))?
The value was “Not detected”.

What about the “RRT 1.6 (degradant)” value ([6]; melt temp 136 °C (condition 2)) of the same compound?
The value was “Not detected”.

And the “thermal degradation on melt processing (HPLC, FIG. 4)” value ([6]; compounded in low melt temperature Tecoflex-93A, melt temperature 137 °C, 280 nm)?
Its value is “did not degrade”.

And the “stable processing temperature limit” value ([6]; with polyurethanes)?
The value was “at least 136 °C”.

What does the source list for `[H]/N=C(\N/C(=N/[H])NCCCCCCNC(=N)NC(=N)Nc1ccc(Cl)cc1)Nc1ccc(Cl)cc1` [chlorhexidine]?
processing temperature at which thermally stable ([4]; with polyolefin thermoplastic elastomers (Versaflex CL30)): up to 161 °C; processing temperature at which thermally stable ([5]; with vinyl polymers (PVC 60A & 85A)): ≤ 165 °C
